Data set [1] is described as follows: Human liver microsomal stability of compound in microsomal protein, PBS buffer pH 7.4, NADPH, glucose-6-phosphate and glucose-6-phosphate dehydrogenase media. Aliquotes were taken at 5 time points and after stopping the reaction, supernatants were analyzed using HPLC coupled with a tandem mass spectrometer. The elimination constant, half-life, and intrinsic clearance are determined as results using linear regression analysis. The assay has been performed by Enamine biological services, Bienta Ltd.The protocol is publicly available: dx.doi.org/10.17504/protocols.io.5qpvokdb9l4o/v1. Conditions: for half-life / microsomal CLint: liver microsomes; for Remaining / Remaining (without cofactor): microsomes. The class given is ADME, microsomes, Microsome. On the technique in general: Microsomes from liver hold many membrane-bound enzymes, among them those of drug oxidation.

The nature of data set [2]: Mouse liver microsomal stability of compound in microsomal protein, PBS buffer pH 7.4, NADPH, glucose-6-phosphate and glucose-6-phosphate dehydrogenase media. Aliquotes were taken at 5 time points and after stopping the reaction, supernatants were analyzed using HPLC coupled with a tandem mass spectrometer. The elimination constant, half-life, and intrinsic clearance are determined as results using linear regression analysis. The assay has been performed by Enamine biological services, Bienta Ltd.The protocol is publicly available: dx.doi.org/10.17504/protocols.io.5qpvokdb9l4o/v1. The class given is ADME, microsomes, Microsome. To be noted: for half-life / microsomal CLint: liver microsomes.

For orientation: half-life means how long it takes for the measured level to halve. Usually microsomal CLint stands for the capacity of the preparation to metabolise the compound, expressed as a volume cleared per time.

Values joined by “and” are separate entries in the source; they are usually repeats but may differ in a detail not shown here. Equal values may be shown once.
For Remaining (without cofactor) in this document: time not given here.
For Remaining in this document: time not given here.

Take `Cc1nn(C)cc1-c1cc2c(N[C@H](c3ccc4c(c3)S(=O)(=O)CCC4)C(C)C)ncnc2[nH]1`: in data set [1], the half-life amounted to 6.1 min, the intrinsic clearance (microsomal CLint) was 273 µL/min/mg, the Remaining is 1% and the “Remaining (without cofactor)” value is 113%. Further, in data set [2], the half-life turned out to be 8.3 min and the intrinsic metabolic clearance (microsomal CLint) turned out to be 202 µL/min/mg. For the same molecule, in data set [2] (microsomes), the Remaining came out at 4% and the “Remaining (without cofactor)” value is listed as 104%.
For the molecule `CNC(=O)c1cc2c(N[C@@H](c3ccc4c(c3)S(=O)(=O)CCC4)C(C)C)ncnc2[nH]1`, in data set [1], the Remaining is 25% and 0%; the “Remaining (without cofactor)” value was 101% and 94%. Further, in data set [2], the half-life was 36.5 min and the microsomal CLint was 46 µL/min/mg. In data set [2] (microsomes), the CLint is 23 µL/min/mg; the Remaining is 47% and 69%; the “Remaining (without cofactor)” value was 100% and 97%; the T1/2 is 71.6 min.
As for `CC(C)(C)[C@H](Nc1ncnc2[nH]c(-c3cnn(CC(N)=O)c3)cc12)c1ccc2c(n1)OCCO2`, in data set [1], the half-life turned out to be 60.8 min, the microsomal CLint amounted to 27 µL/min/mg, the Remaining was found to be 64% and the “Remaining (without cofactor)” value amounted to 95%. In data set [2], this molecule had a half-life of 162 min and a microsomal CLint of 10 µL/min/mg. In data set [2] (microsomes), the Remaining came out at 88% and the “Remaining (without cofactor)” value was 116%.
For the molecule `CC(C)[C@@H](Nc1ncnc2[nH]c(C(=O)N[C@H]3CCN(C)C3)cc12)c1ccc2c(c1)S(=O)(=O)CCC2`, in data set [1], the half-life turned out to be 64 min, the microsomal CLint is 26 µL/min/mg, the Remaining is given as 66% and the “Remaining (without cofactor)” value stood at 107%. Moreover, in data set [2], the half-life was 434 min and the microsomal CLint is 4 µL/min/mg. Further, in data set [2] (microsomes), the Remaining turned out to be 92% and the “Remaining (without cofactor)” value is recorded as 92%.
With `CC(C)[C@H](Nc1ncnc2[nH]ccc12)c1ccc2c(c1)NC(=O)CO2`, in data set [1], the half-life was 160 min, the microsomal CLint was 10 µL/min/mg, the Remaining was 86% and the “Remaining (without cofactor)” value was determined as 95%. In data set [2], the half-life was 45.1 min and the microsomal CLint was found to be 37 µL/min/mg. Further, in data set [2] (microsomes), the Remaining came to 54% and the “Remaining (without cofactor)” value was found to be 89%.
Take `CNC(=O)c1cccc(-c2cc3c(N[C@H](c4ccc5c(c4)S(=O)(=O)CCC5)C(C)C)ncnc3[nH]2)c1`: in data set [1], the half-life was found to be 2.2 min, the intrinsic clearance (microsomal CLint) is 746 µL/min/mg, the Remaining is given as 0% and the “Remaining (without cofactor)” value amounted to 99%. In data set [2], this molecule yielded a half-life of 8.5 min and a microsomal CLint of 197 µL/min/mg. Besides, in data set [2] (microsomes), the Remaining is on record as 4% and the “Remaining (without cofactor)” value was determined as 106%.
For the molecule `CC(C)[C@H](Nc1ncnc2[nH]c(-c3cnn(C)c3C#N)cc12)c1ccc2c(c1)S(=O)(=O)CCC2`, in data set [1], the half-life worked out at 1.8 min, the intrinsic clearance (microsomal CLint) came to 935 µL/min/mg, the Remaining came out at 0% and the “Remaining (without cofactor)” value came to 101%. In addition, in data set [2], the half-life was determined as 5.4 min and the microsomal CLint was 311 µL/min/mg. In addition, in data set [2] (microsomes), the Remaining was 1% and the “Remaining (without cofactor)” value is listed as 90%.
Regarding `CC(C)[C@@H](Nc1ncnc2[nH]c(-c3ccc4nnn(C)c4c3)cc12)c1ccc2c(c1)S(=O)(=O)CCC2`, in data set [1], the half-life was found to be 2.2 min, the microsomal CLint came to 752 µL/min/mg, the Remaining is 0% and the “Remaining (without cofactor)” value stood at 93%. In data set [2], this molecule returned a half-life of 7.6 min and an intrinsic clearance (microsomal CLint) of 219 µL/min/mg. For the same molecule, in data set [2] (microsomes), the Remaining came to 3% and the “Remaining (without cofactor)” value was 93%.
Consider `CCNC(=O)c1cc2c(N[C@@H](c3ccc4c(c3)S(=O)(=O)NCC4)C(C)C)ncnc2[nH]1`, for which, in data set [1], the half-life stood at 19.7 min, the intrinsic metabolic clearance (microsomal CLint) was 85 µL/min/mg, the Remaining is 24% and the “Remaining (without cofactor)” value is recorded as 107%. In data set [2], this molecule registered a half-life of 36.8 min and a microsomal CLint of 45 µL/min/mg. Besides, in data set [2] (microsomes), the Remaining was 49% and the “Remaining (without cofactor)” value was 101%.

For the origin of these results see ChEMBL document CHEMBL5442168, “ASAP - In vitro liver microsomal stability” (2024).
